Laboratory results published in ChEMBL document CHEMBL1201861, “Genomics of Drug Sensitity in Cancer screening data, Wellcome Trust Sanger Institute”.

Tests used:
Assay in all cases: cells
Format in all cases: functional, cell-based, Homo sapiens
[1] = test system: Calu-3;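 also: growth inhibition of human Calu-3 cells, determined with a cell viability assay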
Description: SANGER: Inhibition of human Calu-3 cell growth in a cell viability assay.

[2] = test system: D-566MG
[3] = test system: HCC1419;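 also: growth inhibition of human HCC1419 cells, read out as cell viability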
Description: SANGER: Inhibition of human HCC1419 cell growth in a cell viability assay.

[4] = test system: HO-1-N-1;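 also: growth inhibition of human HO-1-N-1 cells, read out with a cell viability assay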
Description: SANGER: Inhibition of human HO-1-N-1 cell growth in a cell viability assay.

[5] = test system: HT-29;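 also: growth inhibition of human HT-29 cells, read out by a cell viability assay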
Description: SANGER: Inhibition of human HT-29 cell growth in a cell viability assay.

[6] = test system: IGR-1;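 also: growth inhibition of human IGR-1 cells, read out with a cell viability assay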
Description: SANGER: Inhibition of human IGR-1 cell growth in a cell viability assay.

[7] = test system: KOSC-2;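 also: growth inhibition of KOSC-2 cells, read out by a cell viability assay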
Description: SANGER: Inhibition of human KOSC-2 cell growth in a cell viability assay.

[8] = test system: LU-135
Description: SANGER: Inhibition of human LU-135 cell growth in a cell viability assay.

[9] = test system: MDA-MB-157
Description: SANGER: Inhibition of human MDA-MB-157 cell growth in a cell viability assay.

[10] = test system: MHH-ES-1;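 also: cell growth inhibition measured by a cell viability assay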
Description: SANGER: Inhibition of human MHH-ES-1 cell growth in a cell viability assay.

[11] = test system: MIA PaCa-2;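 also: growth inhibition of MIA PaCa-2 cells, read out with a cell viability assay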
Description: SANGER: Inhibition of human MIA-PaCa-2 cell growth in a cell viability assay.

[12] = test system: NCI-H1975
Description: SANGER: Inhibition of human NCI-H1975 cell growth in a cell viability assay.

[13] = test system: NCI-H2342;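 also: growth inhibition of the cancer cell line, determined with a cell viability assay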
Description: SANGER: Inhibition of human NCI-H2342 cell growth in a cell viability assay.

[14] = test system: NCI-H2405;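 also: growth inhibition of the human cell line, read out with a cell viability assay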
Description: SANGER: Inhibition of human NCI-H2405 cell growth in a cell viability assay.

[15] = test system: NCI-H2452;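 also: growth inhibition of NCI-H2452 cells, read out with a cell viability assay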
Description: SANGER: Inhibition of human NCI-H2452 cell growth in a cell viability assay.

[16] = test system: OAW-42;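 also: growth inhibition of OAW-42 cells, read out with a cell viability assay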
Description: SANGER: Inhibition of human OAW-42 cell growth in a cell viability assay.

[17] = test system: PC-14;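 also: cell viability assay measuring inhibition of PC-14 cell growth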
Description: SANGER: Inhibition of human PC-14 cell growth in a cell viability assay.

[18] = test system: RH-18;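 also: growth inhibition of human RH-18 cells, read out with a cell viability assay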
Description: SANGER: Inhibition of human RH-18 cell growth in a cell viability assay.

[19] = test system: RMG-I;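 also: growth inhibition of human RMG-I cells, read out with a cell viability assay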
Description: SANGER: Inhibition of human RMG-I cell growth in a cell viability assay.

[20] = test system: SK-MEL-28;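 also: growth inhibition of human SK-MEL-28 cells, read out with a cell viability assay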
Description: SANGER: Inhibition of human SK-MEL-28 cell growth in a cell viability assay.

[21] = test system: SW 1116;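 also: growth inhibition of SW1116 cells, read out with a cell viability assay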
Description: SANGER: Inhibition of human SW1116 cell growth in a cell viability assay.

[22] = test system: SW948;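 also: growth inhibition of SW948 cells, read out with a cell viability assay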
Description: SANGER: Inhibition of human SW948 cell growth in a cell viability assay.

[23] = test system: SiHa;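 also: Viability-based readout of growth inhibition in SiHa cells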
Description: SANGER: Inhibition of human SiHa cell growth in a cell viability assay.

[24] = test system: T47D;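 also: growth inhibition of human T47D cells, measured with a cell viability assay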
Description: SANGER: Inhibition of human T47D cell growth in a cell viability assay.

[25] = test system: A204;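 also: growth inhibition of human A204 cells, read out with a cell viability assay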
Description: SANGER: Inhibition of human A204 cell growth in a cell viability assay.

[26] = test system: ABC-1;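 also: growth inhibition of human ABC-1 cells, read out by a cell viability assay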
Description: SANGER: Inhibition of human ABC-1 cell growth in a cell viability assay.

[27] = test system: CAL-39;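 also: cell viability assay measuring growth inhibition of CAL-39 cells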
Description: SANGER: Inhibition of human CAL-39 cell growth in a cell viability assay.

[28] = test system: CAL-72;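 also: cell viability assay measuring inhibition of proliferation in the CAL-72 cell line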
Description: SANGER: Inhibition of human CAL-72 cell growth in a cell viability assay.

[29] = test system: CAL-85-1;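 also: growth inhibition of human CAL-85-1 cells, read out with a cell viability assay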
Description: SANGER: Inhibition of human CAL-85-1 cell growth in a cell viability assay.

[30] = test system: TGBC11TKB;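 also: growth inhibition of human TGBC11TKB cells, measured by a cell viability assay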
Description: SANGER: Inhibition of human TGBC11TKB cell growth in a cell viability assay.

[31] = test system: TI-73;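 also: cell viability assay measuring how much compounds suppress growth of the cultured cell line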
Description: SANGER: Inhibition of human TI-73 cell growth in a cell viability assay.

[32] = test system: TYK-nu;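 also: growth inhibition of human TYK-nu cells, read out by a cell viability assay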
Description: SANGER: Inhibition of human TYK-nu cell growth in a cell viability assay.

[33] = test system: H9
Description: SANGER: Inhibition of human H9 cell growth in a cell viability assay.

`CS(=O)(=O)c1ccc(C(=O)Nc2ccc(Cl)c(-c3ccccn3)c2)c(Cl)c1` [VISMODEGIB] showed an IC50 ([1]; Homo sapiens, Calu-3) of over 10 µM, an IC50 ([2]; Homo sapiens, D-566MG) of over 10 µM and an IC50 ([3]; Homo sapiens, HCC1419) of over 10 µM. For the same compound, the IC50 ([4]; Homo sapiens, HO-1-N-1) was over 10 µM, the IC50 ([5]; Homo sapiens, HT-29) was over 10 µM and the IC50 ([6]; Homo sapiens, IGR-1) was over 10 µM. The IC50 ([7]; Homo sapiens, KOSC-2) was over 10 µM, the IC50 ([8]; Homo sapiens, LU-135) was over 10 µM and the IC50 ([9]; Homo sapiens, MDA-MB-157) was over 10 µM. The IC50 ([10]; Homo sapiens, MHH-ES-1) was over 10 µM, the IC50 ([11]; Homo sapiens, MIA PaCa-2) was over 10 µM and the IC50 ([12]; Homo sapiens, NCI-H1975) was over 10 µM. It also gave an IC50 ([13]; Homo sapiens, NCI-H2342) of over 10 µM, an IC50 ([14]; Homo sapiens, NCI-H2405) of over 10 µM and an IC50 ([15]; Homo sapiens, NCI-H2452) of over 10 µM. The IC50 ([16]; Homo sapiens, OAW-42) was over 10 µM, the IC50 ([17]; Homo sapiens, PC-14) was over 10 µM and the IC50 ([18]; Homo sapiens, Rh18) was over 10 µM. For the same compound, the IC50 ([19]; Homo sapiens, RMG-I) was over 10 µM, the IC50 ([20]; Homo sapiens, SK-MEL-28) was over 10 µM and the IC50 ([21]; Homo sapiens, SW 1116) was over 10 µM. It also gave an IC50 ([22]; Homo sapiens, SW948) of over 10 µM, an IC50 ([23]; Homo sapiens, SiHa) of over 10 µM and an IC50 ([24]; Homo sapiens, T47D) of over 10 µM. The IC50 ([25]; Homo sapiens, A204) was over 10 µM, the IC50 ([26]; Homo sapiens, ABC-1) was over 10 µM and the IC50 ([27]; Homo sapiens, CAL-39) was over 10 µM. The IC50 ([28]; Homo sapiens, CAL-72) was over 10 µM, the IC50 ([29]; Homo sapiens, CAL-85-1) was over 10 µM and the IC50 ([30]; Homo sapiens, TGBC11TKB) was over 10 µM. It also gave an IC50 ([31]; Homo sapiens, TI-73) of over 10 µM and an IC50 ([32]; Homo sapiens, TYK-nu) of over 10 µM.

CISPLATIN showed an IC50 ([1]; calu-3) of 582 µM, an IC50 ([2]; d-566mg) of 3.48 µM and an IC50 ([33]; h9) of 3.65 µM. The IC50 ([3]; hcc1419) was 29.5 µM, the IC50 ([4]; ho-1-n-1) was 39.4 µM and the IC50 ([5]; ht-29) was 610 µM. The IC50 ([6]; igr-1) was 575 µM, the IC50 ([7]; kosc-2) was 2.91 µM and the IC50 ([8]; lu-135) was 33.8 µM. For the same compound, the IC50 ([9]; mda-mb-157) was 290 µM, the IC50 ([10]; mhh-es-1) was 55 µM and the IC50 ([11]; mia paca-2) was 5.35 µM. It also gave an IC50 ([12]; nci-h1975) of 409 µM, an IC50 ([13]; nci-h2342) of 53.8 µM and an IC50 ([14]; nci-h2405) of 22.7 µM. The IC50 ([15]; nci-h2452) was 213 µM, the IC50 ([16]; oaw-42) was 8.63 µM and the IC50 ([17]; pc-14) was 5.72 µM. The IC50 ([18]; rh-18) was 353 µM, the IC50 ([19]; rmg-i) was 1150 µM and the IC50 ([20]; sk-mel-28) was 22.2 µM. It also gave an IC50 ([21]; sw 1116) of 158 µM, an IC50 ([22]; sw948) of 222 µM and an IC50 ([23]; siha) of 17 µM. For the same compound, the IC50 ([24]; t47d) was 129 µM, the IC50 ([25]; a204) was 64.4 µM and the IC50 ([26]; abc-1) was 3.61 µM. For the same compound, the IC50 ([27]; cal-39) was 287 µM, the IC50 ([28]; cal-72) was 23.4 µM and the IC50 ([29]; cal-85-1) was 732 µM. For the same compound, the IC50 ([30]; tgbc11tkb) was 29.4 µM, the IC50 ([31]; ti-73) was 8.53 µM and the IC50 ([32]; tyk-nu) was 15.8 µM.

`CN(C)C(=N)NC(=N)N` [METFORMIN] was tested, and the IC50 ([1]; Homo sapiens, Calu-3) was over 20000 µM, the IC50 ([2]; Homo sapiens, D-566MG) was 10800 µM and the IC50 ([33]; Homo sapiens, H9) was 7140 µM. The IC50 ([3]; Homo sapiens, HCC1419) was over 20000 µM, the IC50 ([4]; Homo sapiens, HO-1-N-1) was 13200 µM and the IC50 ([5]; Homo sapiens, HT-29) was over 20000 µM. It also gave an IC50 ([7]; Homo sapiens, KOSC-2) of 3400 µM, an IC50 ([10]; Homo sapiens, MHH-ES-1) of over 20000 µM and an IC50 ([11]; Homo sapiens, MIA PaCa-2) of over 20000 µM. For the same compound, the IC50 ([12]; Homo sapiens, NCI-H1975) was 11700 µM, the IC50 ([13]; Homo sapiens, NCI-H2342) was 8620 µM and the IC50 ([16]; Homo sapiens, OAW-42) was 18100 µM. It also gave an IC50 ([17]; Homo sapiens, PC-14) of 17600 µM, an IC50 ([19]; Homo sapiens, RMG-I) of over 20000 µM and an IC50 ([21]; Homo sapiens, SW 1116) of over 20000 µM. It also gave an IC50 ([22]; Homo sapiens, SW948) of over 20000 µM, an IC50 ([23]; Homo sapiens, SiHa) of over 20000 µM and an IC50 ([24]; Homo sapiens, T47D) of 19900 µM. The IC50 ([26]; Homo sapiens, ABC-1) was over 20000 µM, the IC50 ([27]; Homo sapiens, CAL-39) was over 20000 µM and the IC50 ([28]; Homo sapiens, CAL-72) was 6270 µM. For the same compound, the IC50 ([30]; Homo sapiens, TGBC11TKB) was over 20000 µM, the IC50 ([31]; Homo sapiens, TI-73) was 13600 µM and the IC50 ([32]; Homo sapiens, TYK-nu) was 16500 µM.
